Measurements as given in publication PMC9696374, “Antiandrogenic Effects of a Polyphenol in Carex kobomugi through Inhibition of Androgen Synthetic Pathway and Downregulation of Androgen Receptor in Prostate Cancer Cell Lines” (International Journal of Molecular Sciences, 2022).

Biological target: T1, dehydrogenase/reductase SDR family member 11 (DHRS11) (Homo sapiens, UniProt Q6UWP2)
T1 construct: Homogenous recombinant DHRS11
T1 sequence (Q6UWP2 31-260): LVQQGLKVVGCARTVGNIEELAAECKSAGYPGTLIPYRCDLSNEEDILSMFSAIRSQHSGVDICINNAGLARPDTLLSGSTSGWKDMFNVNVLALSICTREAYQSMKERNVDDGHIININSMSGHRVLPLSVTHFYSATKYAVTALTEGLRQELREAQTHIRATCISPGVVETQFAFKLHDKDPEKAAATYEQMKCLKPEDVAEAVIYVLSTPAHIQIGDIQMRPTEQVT
Test: reductase activity of recombinant DHRS11, NADPH absorbance at […] nm, isatin substrate
Format: biochemical

IC50: 350 ± 30 nM
Structure (SMILES): Cc1c(O)cc(O)c2c(=O)cc(/C=C/c3ccc(O)cc3)oc12 [VI, 5,7-dihydroxy-8-methyl-2-[2-(4-hydroxyphenyl)ethenyl]-4H-1-benzopyran-4-one]
